Experimental data taken from US20240201204A1, “Biomarker and Druggable Target of Neurodegeneration” (University Hospitals Cleveland Medical Center, priority 2020, published 2024).

Experiments:
axon initial segment = experiment: Axon initial segment (AIS) degradation after TBI (AnkG, βIV-spectrin staining); type: in vivo, mouse
Method: (§1) Drug preparation and administration: CGP3466B (Sigma-Aldrich, SML1941) was dissolved in DMSO and then diluted in sterile saline. The final working stock was 0.0014 mg/ml for administering the 0.014 mg/kg dose. Intraperitoneal administration of CGP3466B was initiated 15 min or 24 h after injury, and tissues were harvested 6 h (for SNO-GAPDH, SNO-SIRT1 measurement) or 2 weeks (for ac-tau measurement) later, respectively. Salsalate (AdipoGen, AG-CR1-3574) was dissolved in DMSO and then diluted in sterile PBS. The final working stocks were as follows: 2.5 mg/ml (25 mg/kg dose), 1 mg/ml (10 mg/kg dose), 0.5 mg/ml (5 mg/kg dose). Daily intraperitoneal administration of salsalate was initiated 24 hr after injury and continued throughout behavioral testing. P7C3-A20 and FK866 (Sigma-Aldrich, F8557) were first dissolved in 1 vol of DMSO, followed by addition of 4 vol of Kolliphor and vigorously vortexing. The solution was then diluted with 30 vol of filtered 5% dextrose (pH 7.0). EX527 (Selleckchem, S1541) was dissolved in 1% DMSO+30% polyethylene glycol+1% Tween 80. Daily intraperitoneal administration of P7C3-A20 was initiated 24 hr after poly-traumatic brain injury. EX527 (10 mg/kg) was administer once a day and FK866 was treated twice per day, with the first injection given at the same time as P7C3-A20 (20 mg/kg) and the second injection given 6 h later (LoCoco et al., 2017 eLife). Diflunisal was first dissolved in 1 vol of DMSO, followed by addition of 2 vol of Kolliphor and vigorously vortexing. The solution was then diluted with 7 vol of saline to the appropriate concentration for administration at 25, 50, or 100 mg/kg.
(§2) The pressure in the side not containing the mouse was increased to cause membrane rupture at 20 pounds per square inch (PSI), which generates an about 1-2 ms jet airflow of 137.9+/−13.79 kPa that passes through the animal's head. The head remains untethered in a padded holder, while the body is fully shielded by a metal tube. The jet of air produced upon membrane rupture provides a concussive injury, which is followed by acceleration/deceleration of the head and then exposure to the ensuing blast wave within an enclosed space.
Immunohistochemistry: Mice were transcardially perfused with cold 1× phosphate-buffered saline (PBS) followed by 4% paraformaldehyde in PBS at pH 7.4 under anesthesia. Brains were carefully removed and post-fixed in 4% paraformaldehyde overnight at 4° C. Brains were immersed in 30% sucrose in PBS for 72 h at 4° C. and then rapidly frozen in 2-methylbutane pre-cooled to −20° C. with dry ice. Brains were cut coronally (40 μm) and sections were stored in cryoprotective solution (150 mM Ethylene glycol, 100 mM glycerol, 250 mM PBS) at −20° C. For tau and NeuN staining, sections were washed three times with PBS for 5 min and then treated with 0.2% Triton X-100 in PBS for 15 min. Sections were washed with PBS and then incubated with 100 mM glycine for 15 min. After blocking sections using blocking buffer (1% bovine serum albumin, 10% normal goat serum, 0.3 M glycine) for 30 min, primary antibodies (Tau, Invitrogen, #13-6400, 1:100, NeuN, EMD Millipore Cor., #MABN-140, 1:500) were incubated overnight at 4° C. Sections were washed three times with PBS (5 min each) and then incubated with Alexa Fluor 488 goat anti-mouse (Invitrogen, A11001, 1:200) or Alexa Fluor 568 goat anti-rabbit (Life technologies, A11011, 1:200) at room temperature for 2 h. […]

tau = experiment: Tau mislocalization after TBI (tau and NeuN immunohistochemistry); type: in vivo, mouse
Method: as §1, §2
Immunohistochemistry: Mice were transcardially perfused with cold 1× phosphate-buffered saline (PBS) followed by 4% paraformaldehyde in PBS at pH 7.4 under anesthesia. Brains were carefully removed and post-fixed in 4% paraformaldehyde overnight at 4° C. Brains were immersed in 30% sucrose in PBS for 72 h at 4° C. and then rapidly frozen in 2-methylbutane pre-cooled to −20° C. with dry ice. Brains were cut coronally (40 μm) and sections were stored in cryoprotective solution (150 mM Ethylene glycol, 100 mM glycerol, 250 mM PBS) at −20° C. […]

NAD^+ = experiment: Brain NAD+ measurement after TBI; type: in vivo, mouse
Method: as §1, with “Diflunisal was first dissolved in 1 vol of DMSO, followed by addition of 2 vol of Kolliphor and vigorously vortexing. The solution was then diluted with 7 vol of saline to the appropriate concentration for administration at 25, 50, or 100 mg/kg.” left out

GAPDH = biological target: T1, GAPDH (Mus musculus, UniProt P16858); experiment: S-nitrosylation of GAPDH after TBI (SNO-resin assisted capture, western blot); type: in vivo; details: P7C3-A20 treatment after TBI
T1 construct: from tissue; host or cells: cerebral cortex of C57BL/6J mice after TBI
T1 sequence (P16858 whole entry): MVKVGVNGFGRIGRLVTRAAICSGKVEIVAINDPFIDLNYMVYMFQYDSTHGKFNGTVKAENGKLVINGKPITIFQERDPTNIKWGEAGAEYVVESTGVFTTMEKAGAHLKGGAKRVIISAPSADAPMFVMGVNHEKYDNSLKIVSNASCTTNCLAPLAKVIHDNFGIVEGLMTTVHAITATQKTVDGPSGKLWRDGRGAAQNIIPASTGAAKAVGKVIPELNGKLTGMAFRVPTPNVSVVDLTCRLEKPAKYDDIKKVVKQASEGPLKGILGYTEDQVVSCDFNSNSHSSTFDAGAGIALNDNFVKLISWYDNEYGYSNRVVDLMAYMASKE
Method: as §1, with “The solution was then diluted with 7 vol of saline to the appropriate concentration for administration at 25, 50, or 100 mg/kg.” left out
SNO-resin assisted capture (SNO-RAC): SNO-RAC was performed as described previously (Forrester, 2009). […] After two times centrifugation (20,000 g at 4° C. for 20 min), protein concentration of supernatants was determined using Coomassie protein assay (Thermo Scientific, #1856210). […] SNO-proteins were then eluted with 2× Laemmli Sample Buffer (Bio-Rad Laboratories, Inc., #1610737) with 10% beta-mercaptoethanol (Bio-Rad Laboratories, Inc., #1610710) and analyzed by SDS-PAGE and immunoblotting.

p300/CBP = details: literature (Shirakawa et al., 2016); cited from earlier work
[1] = test system: dementia, minor cognitive impairment, cognitive decline; details: about 19,000 subjects, placebo-controlled; cited from earlier work
[2] = co-treatment with P7C3-A20, EX527 10 mg/kg once a day, FK866 twice per day
[3] = P7C3-A20 daily IP from 24 h after TBI

Q: With `O=C(/C=C/c1cccnc1)NCCCCC1CCN(C(=O)c2ccccc2)CC1` [FK866] as the compound, how does the “effect on P7C3-A20 protection from post-TBI AIS degradation” value (axon initial segment; [2]) read?
A: The value was “This protective effect is blocked”.

Q: What about the “effect on P7C3-A20 protection from post-TBI tau mislocalization” value (tau; [2]) of the same compound?
A: Its value is “This protective effect is blocked”.

Q: And the “effect on P7C3-A20 rescue of NAD^+ levels” value (NAD^+; FK866 twice per day, co-administered with P7C3-A20 after TBI)?
A: Its value is “blocked”.

Q: For `COc1cccc(NCC(F)Cn2c3ccc(Br)cc3c3cc(Br)ccc32)c1` (stereo not drawn) [P7C3-A20, 3,6-dibromo-β-fluoro-N-(3-methoxyphenyl)-9H-carbazole-9-propanamine], which SNO-GAPDH (GAPDH) is on record?
A: The SNO-GAPDH was “SNO-GAPDH is not affected”.

Q: What about the “post-TBI AIS degradation” value (axon initial segment; [3]) of the same compound?
A: The value was “protects mice from post-TBI AIS degradation”.

Q: And the post-TBI tau mislocalization (tau; [3])?
A: Its post-TBI tau mislocalization is “protects mice from post-TBI tau mislocalization”.

Q: What about the “brain NAD^+ levels” value (NAD^+; P7C3-A20 daily IP from 24 h after TBI, cerebral cortex) of the same compound?
A: The value was “rescued normal NAD^+ levels after TBI”.

Q: With `CC(=O)Oc1ccccc1C(=O)O` [aspirin] as the compound, how does the “inhibition of p300/CBP” value (p300/CBP) read?
A: The value was “does not inhibit p300/CBP”.

Q: And the “incidence of dementia, minor cognitive impairment, or cognitive decline” value [1]?
A: Its value is “does not significantly reduce the incidence of dementia, minor cognitive impairment, or cognitive decline”.
